Test [1] addresses T1, PRMT5 (Homo sapiens, UniProt O14744).
T1 construct: purchased Viva (custom protein)
Nature of the test: PRMT5 IC50 assay with no cofactor. In kind it is biochemical. The method, boiled down:
(§1)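 Ki conversion: SAM arm, Ki=IC50/1.5; MTA arm, Ki=IC50/13.5. No-cofactor arm reported as IC50 only. Selectivity expressed as Ki(SAM)/Ki(MTA).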

A further test deals with HAP1 MTAP-deleted. Nature of the test: SDMA in-cell western assay, HAP1 MTAP-deleted cell line. The class given is cell-based. The settings on record: for IC50: Homo sapiens, HAP1 MTAP-deleted cell line; for MTAP Intact/Deleted Ratio: IC50 ratio HAP1 MTAP-intact / HAP1 MTAP-deleted. An outline of the steps:
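IC50 from SDMA in-cell western; HAP1 line lacking MTAP (null), paired isogenically with MTAP-intact HAP1 expressing endogenous MTAP.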

Another test deals with HAP1 MTAP-intact. Nature of the test: SDMA in-cell western assay, HAP1 MTAP-intact cell line. The class given is cell-based. The settings on record: Homo sapiens. The method, boiled down:
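HAP1 isogenic pair: endogenous MTAP vs MTAP-null. Readout SDMA by in-cell western; IC50 per line. Ratio ≥3 fold = MTAP-selective.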

For test [2], the target named is T1, PRMT5. Nature of the test: PRMT5 IC50 assay in the presence of MTA as cofactor. The class given is biochemical. The settings on record: for IC50: PRMT5, MTA as cofactor; for SAM/MTA Ratio: ratio between the Ki in the presence of SAM and the Ki in the presence of MTA. An outline of the steps: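 MTA-dependent versus SAM-dependent inhibition of human PRMT5 was assessed by IC50; conversion factors of 13.5 and 1.5 gave the corresponding Ki.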

The target of test [3] is T1, PRMT5. Nature of the test: PRMT5 IC50 assay in the presence of SAM as cofactor. In kind it is biochemical. An outline of the steps:
as §1

T1 sequence (O14744 whole entry): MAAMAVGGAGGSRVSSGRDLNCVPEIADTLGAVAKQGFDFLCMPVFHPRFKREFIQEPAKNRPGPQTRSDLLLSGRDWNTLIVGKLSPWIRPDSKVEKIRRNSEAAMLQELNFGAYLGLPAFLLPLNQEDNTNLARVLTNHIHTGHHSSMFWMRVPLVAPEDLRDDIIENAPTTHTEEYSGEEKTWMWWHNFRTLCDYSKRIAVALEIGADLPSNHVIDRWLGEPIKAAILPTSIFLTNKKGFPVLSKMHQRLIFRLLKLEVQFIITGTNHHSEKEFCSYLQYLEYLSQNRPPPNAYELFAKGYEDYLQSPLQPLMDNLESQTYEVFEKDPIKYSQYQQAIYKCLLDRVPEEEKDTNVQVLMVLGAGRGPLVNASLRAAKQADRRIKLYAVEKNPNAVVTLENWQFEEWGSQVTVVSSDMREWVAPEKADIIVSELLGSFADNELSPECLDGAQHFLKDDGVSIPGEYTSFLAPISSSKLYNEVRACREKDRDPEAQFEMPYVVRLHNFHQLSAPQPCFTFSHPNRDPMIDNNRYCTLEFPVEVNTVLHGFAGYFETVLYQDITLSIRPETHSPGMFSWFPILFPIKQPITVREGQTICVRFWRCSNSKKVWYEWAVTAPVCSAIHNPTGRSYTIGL
T1 sequence (Q9BQA1 whole entry partner): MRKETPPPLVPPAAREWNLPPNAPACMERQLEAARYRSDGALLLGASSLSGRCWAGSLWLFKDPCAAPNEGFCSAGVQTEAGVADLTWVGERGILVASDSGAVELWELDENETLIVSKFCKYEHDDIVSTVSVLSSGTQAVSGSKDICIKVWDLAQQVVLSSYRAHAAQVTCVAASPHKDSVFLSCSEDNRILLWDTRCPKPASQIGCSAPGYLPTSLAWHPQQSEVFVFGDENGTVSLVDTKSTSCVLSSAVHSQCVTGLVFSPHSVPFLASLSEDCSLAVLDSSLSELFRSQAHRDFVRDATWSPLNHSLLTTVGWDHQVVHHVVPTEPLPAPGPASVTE

Usually IC50 stands for the concentration that gives 50% inhibition. Consider `Cc1ncoc1COc1ccc2c(c1)CCN(C[C@@H](O)CNC(=O)c1cc(NC3CCC3)nc(N3CCN(C)CC3)c1)C2` [Compound 485, 2-(cyclobutylamino)-N-[(2S)-2-hydroxy-3-{6-[(4-methyl-1,3-oxazol-5-yl)methoxy]-1,2,3,4-tetrahydroisoquinolin-2-yl}propyl]-6-(4-methylpiperazin-1-yl)pyridine-4-carboxamide], for which the half-inhibitory concentration (IC50) is 500 to 5000 nM against PRMT5 [1]; less than 1000 nM in the test on HAP1 MTAP-deleted; less than 1000 nM with HAP1 MTAP-intact; 50 to 500 nM at PRMT5 [2]; 50 to 500 nM on PRMT5 [3]. For the same compound, in the test on HAP1 MTAP-deleted, the “MTAP Intact/Deleted Ratio” value was “C* (an IC50 ratio of less than 3 fold between the IC50 in the HAP1 MTAP-intact cell line and the HAP1 MTAP-deleted cell line)”. Besides, the “SAM/MTA Ratio” value at PRMT5 [2] is “A (a Ki ratio greater than or equal to 10 fold between the Ki in the presence of SAM and the Ki in the presence of MTA)”.
For `Cc1c(OCc2cnco2)ccc2c1CCN(C[C@@H](O)CNC(=O)c1ccnc(NC3CC4CCCC43)c1)C2` (stereo partly drawn) [Compound 486, 2-(bicyclo[3.2.0]heptan-6-ylamino)-N—((S)-2-hydroxy-3-(5-methyl-6-(oxazol-5-ylmethoxy)-3,4-dihydroisoquinolin-2(1H)-yl)propyl)isonicotinamide], the IC50 is not below 5000 nM against PRMT5 [1]; 1000 to 10000 nM in the test on HAP1 MTAP-deleted; not below 10000 nM in the test with HAP1 MTAP-intact; 50 to 500 nM at PRMT5 [2]; 50 to 500 nM on PRMT5 [3]. For the same compound, the “MTAP Intact/Deleted Ratio” value in the test with HAP1 MTAP-deleted was “C* (an IC50 ratio of less than 3 fold between the IC50 in the HAP1 MTAP-intact cell line and the HAP1 MTAP-deleted cell line)”. Further, the “SAM/MTA Ratio” value at PRMT5 [2] was “A (a Ki ratio greater than or equal to 10 fold between the Ki in the presence of SAM and the Ki in the presence of MTA)”.
For the compound `Cc1c(OCc2cnco2)ccc2c1CCN(C[C@@H](O)CNC(=O)c1ccnc(N[C@H]3C[C@@H](CO)C3)c1)C2` [Compound 487], the IC50 against PRMT5 [1] is not below 5000 nM; with HAP1 MTAP-deleted, not below 10000 nM; with HAP1 MTAP-intact, not below 10000 nM; on PRMT5 [2] it was 50 to 500 nM; at PRMT5 [3] it was 50 to 500 nM. The “MTAP Intact/Deleted Ratio” value in the test with HAP1 MTAP-deleted was “C* (an IC50 ratio of less than 3 fold between the IC50 in the HAP1 MTAP-intact cell line and the HAP1 MTAP-deleted cell line)”. Besides, on PRMT5 [2], the “SAM/MTA Ratio” value is “A (a Ki ratio greater than or equal to 10 fold between the Ki in the presence of SAM and the Ki in the presence of MTA)”.
Consider `Cc1ncoc1COc1ccc2c(c1C)CCN(C[C@@H](O)CNC(=O)c1cccc(NC3CCC3)c1)C2` [Compound 488, 3-(cyclobutylamino)-N-[(2S)-2-hydroxy-3-{5-methyl-6-[(4-methyl-1,3-oxazol-5-yl)methoxy]-1,2,3,4-tetrahydroisoquinolin-2-yl}propyl]benzamide], for which the IC50 was not below 5000 nM on PRMT5 [1]; 1000 to 10000 nM in the test on HAP1 MTAP-deleted; not below 10000 nM with HAP1 MTAP-intact; 50 to 500 nM at PRMT5 [2]; 500 to 5000 nM on PRMT5 [3]. In addition, the “MTAP Intact/Deleted Ratio” value with HAP1 MTAP-deleted is “C* (an IC50 ratio of less than 3 fold between the IC50 in the HAP1 MTAP-intact cell line and the HAP1 MTAP-deleted cell line)”. In addition, the “SAM/MTA Ratio” value on PRMT5 [2] was “A (a Ki ratio greater than or equal to 10 fold between the Ki in the presence of SAM and the Ki in the presence of MTA)”.
`CCN(C)c1cc(C(=O)NC[C@H](O)CN2CCc3cc(OCc4ocnc4C)ccc3C2)cc(NC2CCC2)n1` [Compound 489, 2-(cyclobutylamino)-6-[ethyl(methyl)amino]-N-[(2S)-2-hydroxy-3-{6-[(4-methyl-1,3-oxazol-5-yl)methoxy]-1,2,3,4-tetrahydroisoquinolin-2-yl}propyl]pyridine-4-carboxamide]: the IC50 against PRMT5 [1] is not below 5000 nM; in the test on HAP1 MTAP-deleted it was 1000 to 10000 nM; with HAP1 MTAP-intact, not below 10000 nM; on PRMT5 [2] it was 50 to 500 nM; at PRMT5 [3], 500 to 5000 nM. Also, in the test with HAP1 MTAP-deleted, the “MTAP Intact/Deleted Ratio” value is “B* (an IC50 ratio greater than or equal to 3 fold but lower than 10 fold between the IC50 in the HAP1 MTAP-intact cell line and the HAP1 MTAP-deleted cell line)”. For the same compound, on PRMT5 [2], the “SAM/MTA Ratio” value was “A (a Ki ratio greater than or equal to 10 fold between the Ki in the presence of SAM and the Ki in the presence of MTA)”.
For `Cc1ncoc1COc1ccc2c(c1Cl)CCN(C[C@@H](O)CNC(=O)c1cccc(NC3COC3)c1)C2` [Compound 490, N-[(2S)-3-[5-chloro-6-[(4-methyl-1,3-oxazol-5-yl)methoxy]-1,2,3,4-tetrahydroisoquinolin-2-yl}-2-hydroxypropyl]-3-[(oxetan-3-yl)amino]benzamide], the IC50 against PRMT5 [1] was not below 5000 nM; in the test on HAP1 MTAP-deleted, not below 10000 nM; with HAP1 MTAP-intact it was not below 10000 nM; at PRMT5 [2], 500 to 5000 nM; at PRMT5 [3] it was 500 to 5000 nM. The “MTAP Intact/Deleted Ratio” value in the test on HAP1 MTAP-deleted was “C* (an IC50 ratio of less than 3 fold between the IC50 in the HAP1 MTAP-intact cell line and the HAP1 MTAP-deleted cell line)”. Further, the “SAM/MTA Ratio” value on PRMT5 [2] was “A (a Ki ratio greater than or equal to 10 fold between the Ki in the presence of SAM and the Ki in the presence of MTA)”.
Take `CC(=O)N1CCC(Nc2cc(C(=O)NC[C@H](O)CN3CCc4nc(OCc5ocnc5C)ccc4C3)ncn2)CC1` [Compound 491, 6-[(1-acetyl-4-piperidyl)amino]-N-[(2S)-2-hydroxy-3-[2-[(4-methyloxazol-5-yl)methoxy]-7,8-dihydro-5H-1,6-naphthyridin-6-yl]propyl]pyrimidine-4-carboxamide]: the IC50 on PRMT5 [1] is not below 5000 nM; in the test with HAP1 MTAP-deleted it was 1000 to 10000 nM; in the test with HAP1 MTAP-intact, not below 10000 nM; at PRMT5 [2], 50 to 500 nM; on PRMT5 [3], 50 to 500 nM. For the same compound, the “MTAP Intact/Deleted Ratio” value with HAP1 MTAP-deleted is “C* (an IC50 ratio of less than 3 fold between the IC50 in the HAP1 MTAP-intact cell line and the HAP1 MTAP-deleted cell line)”. In addition, the “SAM/MTA Ratio” value at PRMT5 [2] is “A (a Ki ratio greater than or equal to 10 fold between the Ki in the presence of SAM and the Ki in the presence of MTA)”.
On to `Cc1ncoc1COc1ccc2c(c1)CCN(C[C@@H](O)CNC(=O)c1cc(NC3COC3)nc(N3CCN(C(C)C)CC3)n1)C2` [Compound 492, N-[(2S)-2-hydroxy-3-{6-[(4-methyl-1,3-oxazol-5-yl)methoxy]-1,2,3,4-tetrahydroisoquinolin-2-yl}propyl]-6-[(oxetan-3-yl)amino]-2-[4-(propan-2-yl)piperazin-1-yl]pyrimidine-4-carboxamide], for which the IC50 against PRMT5 [1] was not below 5000 nM; in the test with HAP1 MTAP-deleted, 1000 to 10000 nM; in the test with HAP1 MTAP-intact, 1000 to 10000 nM; on PRMT5 [2], 50 to 500 nM; on PRMT5 [3], 50 to 500 nM. In addition, in the test with HAP1 MTAP-deleted, the “MTAP Intact/Deleted Ratio” value was “C* (an IC50 ratio of less than 3 fold between the IC50 in the HAP1 MTAP-intact cell line and the HAP1 MTAP-deleted cell line)”. Besides, the “SAM/MTA Ratio” value at PRMT5 [2] was “A (a Ki ratio greater than or equal to 10 fold between the Ki in the presence of SAM and the Ki in the presence of MTA)”.
In the case of `Cc1ncoc1COc1ccc2c(c1)CCN(C[C@@H](O)CNC(=O)c1ccc3c(c1)CCN(C(=O)c1ccc(Br)cc1)C3)C2` [Compound 493], the IC50 against PRMT5 [1] is 500 to 5000 nM; with HAP1 MTAP-deleted, less than 1000 nM; with HAP1 MTAP-intact, 1000 to 10000 nM; at PRMT5 [2], less than 50 nM; at PRMT5 [3], 50 to 500 nM. For the same compound, in the test on HAP1 MTAP-deleted, the “MTAP Intact/Deleted Ratio” value was “B* (an IC50 ratio greater than or equal to 3 fold but lower than 10 fold between the IC50 in the HAP1 MTAP-intact cell line and the HAP1 MTAP-deleted cell line)”. Further, the “SAM/MTA Ratio” value at PRMT5 [2] was “A (a Ki ratio greater than or equal to 10 fold between the Ki in the presence of SAM and the Ki in the presence of MTA)”.
For `Cc1c(OCc2cnco2)ccc2c1CCN(C[C@@H](O)CNC(=O)c1ccnc(NC3CCN(C(=O)C4CCC4)CC3)c1)C2` [Compound 494, (S)-2-((1-(cyclobutanecarbonyl)piperidin-4-yl)amino)-N-(2-hydroxy-3-(5-methyl-6-(oxazol-5-ylmethoxy)-3N-dihydroisoquinolin-2(1H)-yl)propyl)isonicotinamide], the IC50 against PRMT5 [1] is 500 to 5000 nM; in the test on HAP1 MTAP-deleted, 1000 to 10000 nM; in the test on HAP1 MTAP-intact, not below 10000 nM; at PRMT5 [2], 50 to 500 nM; on PRMT5 [3], 50 to 500 nM. Further, the “MTAP Intact/Deleted Ratio” value with HAP1 MTAP-deleted is “B* (an IC50 ratio greater than or equal to 3 fold but lower than 10 fold between the IC50 in the HAP1 MTAP-intact cell line and the HAP1 MTAP-deleted cell line)”. Moreover, at PRMT5 [2], the “SAM/MTA Ratio” value was “A (a Ki ratio greater than or equal to 10 fold between the Ki in the presence of SAM and the Ki in the presence of MTA)”.
On to `CCC(=O)N1CC(Nc2cc(C(=O)NC[C@H](O)CN3CCc4c(ccc(OCc5cnco5)c4C)C3)ccn2)C1` [Compound 495, (S)—N-(2-hydroxy-3-(5-methyl-6-(oxazol-5-ylmethoxy)-3,4-dihydroisoquinolin-2(1H)-yl)propyl)-2-((1-propionylazetidin-3-yl)amino)isonicotinamide], for which the IC50 is 500 to 5000 nM against PRMT5 [1]; not below 10000 nM in the test with HAP1 MTAP-deleted; not below 10000 nM with HAP1 MTAP-intact; 50 to 500 nM at PRMT5 [2]; 50 to 500 nM at PRMT5 [3]. Besides, the “MTAP Intact/Deleted Ratio” value in the test on HAP1 MTAP-deleted was “C* (an IC50 ratio of less than 3 fold between the IC50 in the HAP1 MTAP-intact cell line and the HAP1 MTAP-deleted cell line)”. Also, at PRMT5 [2], the “SAM/MTA Ratio” value was “A (a Ki ratio greater than or equal to 10 fold between the Ki in the presence of SAM and the Ki in the presence of MTA)”.

Values taken from patent US11986471B2, “Compounds and methods of use” (Tango Therapeutics, Inc., priority 2018, dated 2024).
